Each compound was assayed against T1, CD38 NADase (Homo sapiens, UniProt P28907, N100D/N164D/N209D/N219D) (assay: Enzyme activity assay: inhibition of the NAD-glycohydrolase (NADase) activity of recombinant CD38 (NAD cycling assay)). Conditions: recombinant CD38 0.3 ng, 2 h preincubation at room temperature, NAD 2.5 µM.
T1 construct: pPICZαA carrying the C-terminus of CD38 (AA46-300, with the four glycosylation sites mutated); made in house; host or cells: Pichia pastoris X33 (pPICZαA vector)
T1 sequence (P28907 46-300 N100D/N164D/N209D/N219D): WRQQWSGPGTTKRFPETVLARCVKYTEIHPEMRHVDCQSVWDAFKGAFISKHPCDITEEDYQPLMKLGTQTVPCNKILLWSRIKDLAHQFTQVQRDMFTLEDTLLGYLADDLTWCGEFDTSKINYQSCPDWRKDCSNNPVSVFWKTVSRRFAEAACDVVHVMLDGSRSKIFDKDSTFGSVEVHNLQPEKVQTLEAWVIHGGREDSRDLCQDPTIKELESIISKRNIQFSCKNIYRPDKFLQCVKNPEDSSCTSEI
Format: biochemical
Experimental: Enzyme inhibition assays. The inhibitory activities to CD38 NADase of NAD analogues were evaluated by the method reported before. In this method, the inhibitions of NADase activities were calculated from the decrease of the NAD content.
Recombinant CD38, produced with a yeast expression system (Invitrogen, Carlsbad, CA, USA) was used to prepare the recombinant CD38 as reported previously. Briefly, pPICZαA carrying the C-terminus of CD38 (AA46-300, with the four glycosylation sites mutated, N100D, N164D, N209D and N219D) was transformed Pichia pastoris yeast, X33. The recombinant CD38 was induced by methanol and purified by phenylsepharose chromatography and cation exchange chromatography (SP column, GE Healthcare, Little Chalfont, UK). All the chemicals used in the enzymatic assays were purchased from Sigma (Santa Clara, CA, USA).
To study the inhibition of the NAD-glycohydrolase (NADase) activity of CD38 by the compounds, an enzymatic assay was performed. Briefly, different concentrations of the compound were mixed with recombinant CD38 (0.3 ng) and bovine serum albumin (1 µg) in a 16 µL-reaction mixture, then incubated in the dark for 2 hours at room temperature. NAD was added to the mixture to a final concentration of 2.5 µM to start the reaction. Aliquots (4 µL) of the reaction mixtures were withdrawn at 0, 4, 8 and 12 min, and the reaction was stopped by adding 4 µL of 0.6 M HCl, followed by neutralization with 8 µL of 0.5 M phosphate buffer, pH 8. The subsequent cycling reaction was conducted in 96-well plate with 16 µL of the sample mixed with 100 µL of the reagent containing 2% ethanol, 100 µg/mL alcohol dehydrogenase, 20 µM resazurin, 11 µg/mL diaphorase, 10 µM flavin mononucleotide and 100 mM sodium phosphate, pH 7. The cycling reaction was allowed to proceed for 10 min and the rate of fluorescence increase of resorufin (with excitation at 544 nm and emission at 590 nm) was measured using the Infinite M200 fluorescence plate reader (TECAN, Grödig, Austria). The relative NAD content was measured from the slope of fluorescence increase and the NAD-glycohydrolase activity was calculated from the decrease of NAD content at 0, 4, 8 and 12 min after the reaction started. As a control, each compound was directly added to the cycling reaction system with corresponding concentration to evaluate the potential interference to the cycling assay itself. IC50 values of inhibitors were calculated by the GraphPad Prism 5 software (GraphPad Software, Inc., La Jolla, CA, USA).

IC50, inhibitory activities of CD38 NADase | SMILES
n.s. | C[C@@]1(F)[C@H](O)[C@@H](COP(=O)(O)CP(=O)(O)OC[C@H]2O[C@@H]([n+]3cccc(C(N)=O)c3)[C@](C)(F)[C@@H]2O)O[C@H]1[n+]1cccc(C(N)=O)c1 [Compound 22, Bis(2′-deoxy-2′-fluoro-2′-methyl-β-nicotinamide)-methylenediphosphonate]

Same assay, conditions: recombinant CD38 0.3 ng, 2 h preincubation at room temperature, NAD 2.5 µM; read-out: IC50, inhibitory activities of CD38 NADase

SMILES | IC50
NC(=O)c1ccc[n+]([C@@H]2O[C@H](COP(=O)([O-])OP(=O)(O)OC[C@H]3O[C@@H](n4cnc5c(N)ncnc54)[C@H](O)[C@@H]3O)[C@@H](O)[C@@H]2F)c1 [Compound 23, 2′-deoxy-2′-fluoroarabinosyl-β-nicotinamide adenine dinucleotide, reference compound] | 0.0611 µM
NC(=O)c1ccc[n+]([C@@H]2O[C@H](COP(=O)(O)OP(=O)(O)OC[C@H]3O[C@@H]([n+]4cccc(C(N)=O)c4)[C@@H](F)[C@@H]3O)[C@@H](O)[C@@H]2F)c1 [Compound 20, Bis(2′-deoxy-2′-fluoro-β-nicotinamide-arabinosyl) pyrophophate] | 0.575 µM
COc1ncnc2c1ncn2C1OC(COP(=O)(O)OP(=O)([O-])OCC2OC([n+]3cccc(C(N)=O)c3)C(F)C2O)C(O)C1O (stereo not drawn) [Compound 19, 2′-Deoxy-2′-fluoro-arabinosyl-β-nicotinamide 6-O-methyl-hypoxanthine dinucleotide] | 0.133 µM
CC1(F)C(O)C(COP(=O)([O-])OP(=O)(O)OCC2OC(n3cnc4c(N)ncnc43)C(O)C2O)OC1[n+]1cccc(C(N)=O)c1 (stereo not drawn) [Compound 7, 2′-Deoxy-2′-fluoro-2′-methyl-β-nicotinamide adenine dinucleotide] | 1810 µM
NC(=O)c1ccc[n+]([C@@H]2O[C@H](COP(=O)(O)CP(=O)(O)OC[C@H]3O[C@@H]([n+]4cccc(C(N)=O)c4)[C@@H](F)[C@@H]3O)[C@@H](O)[C@@H]2F)c1 [Compound 21, Bis(2′-deoxy-2′-fluoro-β-nicotinamide-arabinosyl)-methylenediphosphonate] | 7.98 µM
NC(=O)c1ccc[n+](C2OC(CSP(=O)(O)OP(=O)([O-])OCC3OC(n4cnc5c(N)ncnc54)C(O)C3O)C(O)C2F)c1 (stereo not drawn) [Compound 10, 2′-Deoxy-2′-fluoro-5′-thio-phosphate-arabinofuranoside-β-nicotinamide adenine dinucleotide] | 0.341 µM
NC(=O)c1ccc[n+]([C@@H]2O[C@H](COP(=O)(O)O)[C@@H](O)[C@@H]2F)c1 [Compound 8, 2′-deoxy-2′-fluoroarabinosyl-β-nicotinamide mononucleotide, reference compound] | 0.297 µM
NC(=O)c1ccc[n+](C2OC(COP(=O)([O-])OP(=O)(O)OP(=O)(O)OCC3OC(n4cnc5c(N)ncnc54)C(O)C3O)C(O)C2F)c1 (stereo not drawn) [Compound 11, P^1-(Adenosine)-P^3-(2′-deoxy-2′-fluoro-β-nicotinamide arabinofuranoside) triphosphate] | 1.15 µM
NC(=O)c1ccc[n+](C2OC(COP(=O)([O-])OP(=O)(O)OCC3OC(n4cnc5c(=O)[nH]c(N)nc54)C(O)C3O)C(O)C2F)c1 (stereo not drawn) [Compound 13, 2′-Deoxy-2′-fluoro-arabinosyl-β-nicotinamide guanine dinucleotide] | 0.0893 µM
NC(=O)c1ccc[n+](C2OC(COP(=O)([O-])OP(=O)(O)OCC3OC(n4cnc5c(=O)[nH]cnc54)C(O)C3O)C(O)C2F)c1 (stereo not drawn) [Compound 12, 2′-Deoxy-2′-fluoro-arabinosyl-β-nicotinamide hypoxanthine dinucleotide] | 0.109 µM

Same assay, conditions: recombinant CD38, NAD 2.5 µM

SMILES | inhibition of CD38 NADase, in words
CC1(F)C(O)C(COP(=O)([O-])OP(=O)(O)OCC2OC(n3cnc4c(N)ncnc43)C(O)C2O)OC1[n+]1cccc(C(N)=O)c1 (stereo not drawn) [Compound 7, 2′-Deoxy-2′-fluoro-2′-methyl-β-nicotinamide adenine dinucleotide] | weak inhibition

Reference: PMC6271716, “Design, Synthesis and SAR Studies of NAD Analogues as Potent Inhibitors towards CD38 NADase” (Molecules, 2014)
